Experiments:
[1] = target: T1, Saccharomyces cerevisiae dihydroorotase (DHOase) (Saccharomyces cerevisiae, UniProt P20051); assay: spectrophotometric assay of dihydroorotate hydrolysis at […] nm with purified recombinant enzyme; format: biochemical
T1 construct: gene URA4
T1 sequence (P20051 1-364): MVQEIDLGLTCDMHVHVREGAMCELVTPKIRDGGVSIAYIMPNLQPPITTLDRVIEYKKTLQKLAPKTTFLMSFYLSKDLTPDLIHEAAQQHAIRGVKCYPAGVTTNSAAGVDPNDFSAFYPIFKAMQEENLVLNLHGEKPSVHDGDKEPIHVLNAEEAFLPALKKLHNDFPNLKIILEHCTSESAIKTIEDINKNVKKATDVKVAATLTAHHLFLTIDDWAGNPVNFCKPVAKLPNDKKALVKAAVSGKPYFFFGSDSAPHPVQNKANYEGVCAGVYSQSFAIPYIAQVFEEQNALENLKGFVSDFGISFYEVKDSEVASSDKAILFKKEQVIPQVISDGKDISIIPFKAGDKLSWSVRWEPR

[2] = target: T1, Saccharomyces cerevisiae dihydroorotase (DHOase); assay: spectrophotometric assay of dihydroorotate hydrolysis at […] nm with purified recombinant enzyme; […] inhibition at […]; format: biochemical

SMILES | IC50 [1] [µM] | IC50 [2] [µM]
O=c1c(O)c(-c2cc(O)c(O)c(O)c2)oc2cc(O)cc(O)c12 [myricetin] | 12.5 ± 0.47 | 
O=C(O)c1[nH]c(=O)[nH]c(=O)c1F [5-FOA] |  | > 600
